Reference: article PMC8344021, “Discovery of Small Molecule Bak Activator for Lung Cancer Therapy” (Theranostics, 2021)

Columns and labels:
[1] = tested on: LSL-KRAS G12D LKB1 fl/fl (KL) mice lung tumors; test: Mutant KRAS-driven lung cancer GEMM (KL mice); assay type: in vivo, mouse; details: 15 mg/kg/d i.p.
Procedure: LSL-KRAS^G12D LKB1^fl/fl (KL) were generated as previously described [30]-[33]. All studies were performed on protocols approved by the Emory University IACUC. Six weeks after cre-adenovirus infection, KL mice were treated with BKA-073 intraperitoneally (i.p) for 48 days. Mice were euthanized with CO2 asphyxiation. After lung perfusion with PBS, the left lung lobes were harvested from mice in control and BKA-073 treated groups and immediately fixed in 10% neutral buffered formalin (Fisher Scientific, Kalamazoo, MI), horizontally cut into three equal parts and embedded in paraffin blocks. Three parts of lung tissues representing different regions of the lung were vertically put into paraffin blocks for hematoxylin-eosin (H&E) staining. Lung tissue samples were sectioned at 3 µm three times for placement of slides and stained with H&E. H&E stained samples were scanned using Nano Zoomer 2.0-HT (Hamamatsu, Japan) and images were analyzed using ImageScope viewing software (Leica Biosystems, Buffalo Grove, IL). Tumor numbers were counted under a microscope and tumor area was quantified using Openlab modular imaging software (PerkinElmer, Waltham, MA) as previously described, [32].
KRAS is the most commonly mutated oncogene, yet no effective targeted therapies exist for KRAS-mutant cancers. […] Since BKA-073 is able to induce apoptosis by activation of Bak via facilitating its oligomerization in vitro and in vivo (Figures 1, 2 and 4), we were interested in testing whether BKA-073 is effective for the treatment of mutant KRAS-driven cancer. To assess the potency of BKA-073 in KRAS mutant-driven lung cancer, lox-stop-lox (LSL)-KRAS^G12D LKB1^fl/fl (i.e. KL) mice were generated and bred out as previously described, [31], [50], [51]. These mice contain a KRAS^G12D LSL knock-in allele and a floxed allele of LKB1 (LKB1^fl/fl), [31]. Primary lung adenocarcinoma was detectable as early as 6 weeks after intranasal administration of 5×10^6 pfu adenovirus expressing Cre recombinase (AdeCre) in KRAS^G12D LKB1^fl/fl (KL) mice. […] After treatment for 48 days, KL mice were euthanized with CO2 asphyxiation. Lungs with tumor and normal lung tissues were collected for further analysis. To quantify tumor burden and tumor multiplicity in mice, H&E-stained lungs were imaged with morphometric software to quantify the surface area composed of tumor as opposed to normal tissue of representative cross-sections of each lung lobe for each mouse as previously described [31]-[33]. […] There were 4 deaths out of 6 mice in the control group versus 2 death out of 6 mice in the BKA-073 treatment group […], calculated up to 48 days before euthanization.

[2] = tested on: NSCLC and SCLC cell lines; test: Apoptotic cell death in panel of NSCLC and SCLC cell lines; assay type: cell-based, human; details: 1μM
Procedure: Figure 1 Discovery of small molecule BKA-073 as a lead compound that targets BH3 domain of Bak and induces mitochondrial priming and apoptosis in lung cancer cells. (A) Schematic illustration of screening strategies used to identify the lead Bak agonist BKA-073 and its chemical structure. (B) Structural modeling of BKA-073 in the BH3 domain binding pocket of Bak protein. (C) Expression levels of Bak were analyzed by Western blot in NSCLC and SCLC cell lines. (D-E) A panel of NSCLC and SCLC cell lines were treated with BKA-073 (1μM) for 16h or 72h, followed by analysis of dynamic BH3 profiling (D) or apoptotic cell death (E), respectively. Data represent the mean ± SD, n = 3 per group. **P < 0.01, ***P < 0.001, by 2-tailed t test. TEXT PRINTED IN THE PICTURE: (A) BKA-073: MW: 361.87 […]
Supplemental Materials and Methods
Small molecule NSC14073 (BKA-073) was obtained from the Drug Synthesis and Chemistry Branch, Developmental Therapeutic Program, Division of Cancer Treatment and Diagnosis, National Cancer Institute (NCI, Bethesda, MD) (http://dtp.nci.nih.gov/RequestCompounds).
Venetoclax (ABT-199, 205807) was purchased from MedKoo Biosciences (Morrisville, NC).
Antibodies including PARP (sc-8007), Bax (sc-7480), Mcl-1 (sc-12756), cytochrome c (sc-13156) and actin (sc-47778) were purchased from Santa Cruz (Santa Cruz, CA). Bcl2 antibody (05-826) was obtained from Calbiochem (Darmstadt, Germany). Bcl-XL (ab32370), Bak (ab32371) and Bax (ab104156) antibodies were purchased from Abcam (Cambridge, MA). […]
Cells were seeded at a density of 5 × 103 per well in 96-well plates and allowed to grow overnight. After treatment with BKA-073, the surviving cell fraction was determined using the sulforhodamine B (SRB) assay as described. Optical density (OD) was measured at 510nm in a microplate reader (Synergy H1, BioTek®, Winooski, VT). […]
Apoptotic cells were detected using Annexin-V Apoptosis Detection Kit (556547, BD Biosciences, San Jose, CA) according to the manufacturer’s instructions. […]

COc1ccc2nc3ccccc3c(NCCNCC(C)O)c2c1 (stereo not shown) [BKA-073]
tumor burden in the lung ([1]; 48 days): significant reduction
tumor multiplicity in the lung ([1]; 48 days): significant reduction
deaths out of 6 mice ([1]; up to 48 days, control 4 of 6, p < 0.01): 2
survival ([1]; vs control group): significantly prolonged survival
induction of apoptosis ([2]; 72h): potently induced
sensitivity (mitochondrial priming and apoptosis), lines with relatively higher Bak ([2]; A549, H157, H1975, DMS53, DMS114, H209, H526): more sensitive
sensitivity (mitochondrial priming and apoptosis), lines with relatively lower Bak ([2]; Calu-1, H69, H128, H146): less sensitive
